Read-outs that look alike come from different tables or passages of the source.
What was measured:
[1] = tested on: EN2A, NR-transformed counterpart of EMT6; assay: Cytotoxicity, 18 h drug exposure, EMT6 NR+ line (EN2A); format: cell-based, mouse; settings: for IC50: EN2A cells, 18 h drug exposure, read-out: EMT6 NR+ IC50
From the text: (§1) The Chinese hamster fibroblast NR− line (T78-1) is a V79/4 Chinese hamster fibroblast transfected with an empty shuttle vector, while the NR+ line (T79-A3) is the corresponding NR transfectant. The human colon carcinoma NR− line (WIDR) is wild-type, while the NR+ line (WC14 10) is the corresponding NR transfectant. The human ovarian carcinoma NR− line (SKOV3) is wild-type, while the NR+ line (SC3.2) is the corresponding NR transfectant. EMT6 is a mouse mammary carcinoma line, and EN2A is the NR-transformed counterpart.

[2] = tested on: EMT6 mouse mammary carcinoma line; assay: Cytotoxicity, 18 h drug exposure, EMT6 NR− line; format: cell-based; settings: EMT6 cells, 18 h drug exposure, read-out: EMT6 NR− IC50
From the text: as §1

[3] = tested on: Chinese hamster fibroblast NR− line (T78-1), V79/4 transfected with an empty shuttle vector; assay: Cytotoxicity, 18 h drug exposure, V79 NR− line (T78-1); format: cell-based; settings: T78-1 cells, 18 h drug exposure, read-out: V-79 NR− IC50
From the text: as §1

[4] = tested on: Chinese hamster fibroblast NR+ line (T79-A3), NR transfectant; assay: Cytotoxicity, 18 h drug exposure, V79 NR+ line (T79-A3); format: cell-based; settings: for IC50: T79-A3 cells, 18 h drug exposure, read-out: V-79 NR+ IC50
From the text: as §1

[5] = tested on: human colon carcinoma NR− line (WIDR), wild-type; assay: Cytotoxicity, 18 h drug exposure, WiDr NR− line; format: cell-based; settings: WIDR cells, 18 h drug exposure, read-out: WiDr NR− IC50
From the text: as §1

[6] = tested on: human colon carcinoma NR+ line (WC14 10), NR transfectant; assay: Cytotoxicity, 18 h drug exposure, WiDr NR+ line (WC14 10); format: cell-based; settings: for IC50: WC14 10 cells, 18 h drug exposure, read-out: WiDr NR+ IC50
From the text: as §1

[7] = tested on: human ovarian carcinoma NR− line (SKOV3), wild-type; assay: Cytotoxicity, 18 h drug exposure, SKOV3 NR− line; format: cell-based; settings: SKOV3 cells, 18 h drug exposure, read-out: SKOV NR− IC50
From the text: as §1

[8] = tested on: human ovarian carcinoma NR+ line (SC3.2), NR transfectant; assay: Cytotoxicity, 18 h drug exposure, SKOV NR+ line (SC3.2); format: cell-based; settings: for IC50: SC3.2 cells, 18 h drug exposure, read-out: SKOV NR+ IC50
From the text: as §1

NC(=O)c1ccc(Cl)c([N+](=O)[O-])c1N1CC1
melting point: 216 °C

NC(=O)c1cc([N+](=O)[O-])c(N2CC2)c([N+](=O)[O-])c1 [Compound 19, 4-(Aziridin-1-yl)-3,5-dinitrobenzamide]
IC50 ([1]; Mus musculus, EMT6): > 20 µM
IC50 ([2]; Mus musculus): > 20 µM
IC50 ([3]; Cricetulus griseus): > 20 µM
IC50 ([4]; Cricetulus griseus, Fibroblast): > 20 µM
melting point: 228 to 231 °C
IC50 ([5]; Homo sapiens): > 20 µM
IC50 ([6]; Homo sapiens, WiDr): > 20 µM
IC50 ([7]; Homo sapiens, SK-OV-3): > 20 µM
IC50 ([8]; Homo sapiens): > 20 µM

NC(=O)c1cc([N+](=O)[O-])c(Cl)cc1N1CC1
melting point: 155 °C

O=C(NCCN1CCOCC1)c1cc(N2CC2)c([N+](=O)[O-])cc1[N+](=O)[O-] [Compound 3, 5-(aziridin-1-yl)-N-[2-(4-morpholino)ethyl]-2,4-dinitrobenzamide]
EMT6 ratio of IC50s ([1]; EMT6 vs EN2A, inter-experiment average): 4505
IC50 [1]: 0.061 µM
IC50 [2]: 229 µM
IC50 [3]: 571 µM
V-79 ratio of IC50s ([4]; T78-1 vs T79-A3, inter-experiment average): 4160
IC50 [4]: 0.15 µM
IC50 [5]: 131 µM
IC50 [6]: 0.72 µM
WiDr ratio of IC50s ([6]; WIDR vs WC14 10, inter-experiment average): 183
IC50 [7]: 494 µM
IC50 [8]: 0.45 µM
SKOV ratio of IC50s ([8]; SKOV3 vs SC3.2, inter-experiment average): 1100
